We go through 14 compounds from patent US8598132B2, “Glycosylated indolocarbazoles, method for obtaining same and uses thereof” (Universidad de Oviedo, priority 2008, dated 2013).

One assay deals with JAK2 (Homo sapiens, UniProt O60674). Nature of the assay: LabChip (Caliper) kinase assay, JAK2. The format is biochemical. The conditions noted are these: for inhibition at 0.01 µM / inhibition at 0.1 µM: JAK2, read-out: remaining kinase activity (in %) / percentage of inhibition; for inhibition at 0.01 µM: compound at 10 nM; for inhibition at 0.1 µM: compound at 100 nM; for IC50: Jak2, ATP at Km, read-out: CI50 (the source's name). The method, then: (§1) The analysis of kinase activity described here was performed using LabChip (Caliper Life Sciences), specifically the Caliper LC3000 and the EZ Reader II instruments.
(§2) The kinase assay used measures the conversion of a fluorescent peptide (substrate) to a phosphorylated product. The reaction mixture, in a microplate well, is introduced by a capillary in a chip where the non-phosphorylated substrate and the phosphorylated product are separated by […]. The intensity of the fluorescent signal over time is related to the reaction progress. The phosphorylated product migrates quicker than the non-phosphorylated substrate and the signals of the two forms of the peptide appear as differentiated peaks. The Caliper determines the peak height and calculates the ratio of product to the peak sum (P/(P+S)). This value is used to compare wells with compounds and wells with controls and thus determine the % of inhibition for the given product.
(§3) The followings kinases were used for the enzymatic inhibition studies, between brackets the value of the Michaelis-Menten constant, Km, of the ATP (Adenosine triphosphate) for each kinase, in μM: obtained from Carna Biosciences: MAPKAPK2 (4.6), AurA (3.6), AurB (5), PKCζ (3.8), RSK1 (23.3), PRAK (5), Erk1 (33.4), PKD2 (32.1), CK1d (16.3), CHK1 (33), ABL (61.7), FYN (36), LYNa (17), CHK2 (57.8), MET (79.5), LCK (28.5), SRC (38), GSK3β (7.3), Erk2 (62.1), PKACα (1.7), AKT2 (186.1), INSR (871.8), p38a (396.5), AKT1(48), MSK1 (21.2), PKCβ2 (84.8), ROCK2 (3.3), PIM2 (4.9), AMPK (38.6), KDR (164.8), IRAK4 (196.5), SGK1 (121.8), SYK (33.5); obtained from Invitrogen: CDK2 (57.6), BTK (123), HGK (80); obtained from Upstate: MST2 (36.6), PKGα (16), PAK2 (1.9), IGF1R (320), FGFR1 (171), MARK1 (33), CAMK2δ (22.4), c-TAK1 (66), DYRK1a (18.1), CaMK4 (3.9), FLT3 (350), c-Raf (6.2), P70S6K (95).
(§4) The compounds were dissolved in 100% DMSO and were diluted at 25 times the final concentration desired for the assay. In the case of the determination of Cl50, serial dilutions were made to reach eight concentrations and give rise to the inhibition curve. 1 μL of each concentration is transferred, in duplicate to a 384-well microplate. 12 μL of enzymatic buffer is added to each well containing purified kinase (several suppliers as indicated above), 100 mM HEPES, pH 7.5, 1 mM DTT (Calbiochem), 0.002% Brij-35 (Sigma) and also in presence of 10 mM MgCl2 as cofactor, except for INSR and IRAK4 wherein 10 mM MnCl2 is used instead of MgCl2. For the kinases CAMK26 and CAMK4, 1 mM CaCl2 and 6.7 μg/mL of calmodulin are also added. For KDR kinase, 0.05% of the CHAPSO detergent is added. For the c-Raf kinase, 10 mM MnCl2 is added. For PKCβ2 0.02 μg/mL of PS/PMA is added. For PKGα se 10 μM of cGMP (cyclic guanosine monophosphate) is added. The compound and the enzyme are left for 15 minutes preincubation and, then, the following are added to each well: 12 μL of peptide buffer/ATP containing 100 mM HEPES, pH 7.5, 1.5 μM peptide marker with fluorescein (specific for the corresponding kinase), ATP (at concentration KM), and 0.002% Brij-35 to start the reaction. Generally, the reactions are incubated for 1-1.5 h at ambient temperature to obtain an adequate conversion (15-40%) of the peptide to the phosphorylated product. The reactions were ended by the addition of 45 μL of buffer containing 0 mM EDTA. The microplates were read by the LabChip 3000 using a 12-channel LabChip. The P/(P+S) values were obtained as described above and the CI50 curves were generated using XIfit.
Table 9a has the 0150 data obtained in pairs of compound-kinase selected from the compounds of formula (VII), (VIII), (IX), (XVI), (XVII) and (XVIII) after taking inhibition measurements at 100 nM and 10 nM. Those couples that provide >70% of inhibition at 10 nM were consider for measuring its IC50. […]

In the next assay the target is T1, GSK3b (Homo sapiens, UniProt P49841).
T1 construct: purchased Carna Biosciences
Nature of the assay: LabChip (Caliper) kinase assay, GSK3b. The format is biochemical. The note with it: read-out: remaining kinase activity (in %) / percentage of inhibition; for inhibition at 0.01 µM: compound at 10 nM; for inhibition at 0.1 µM: compound at 100 nM. The method, then: as §1, §2, §3
as §4, with “XIfit. […]” for “XIfit.”

JAK2, sequence (O60674 whole entry, species assumed): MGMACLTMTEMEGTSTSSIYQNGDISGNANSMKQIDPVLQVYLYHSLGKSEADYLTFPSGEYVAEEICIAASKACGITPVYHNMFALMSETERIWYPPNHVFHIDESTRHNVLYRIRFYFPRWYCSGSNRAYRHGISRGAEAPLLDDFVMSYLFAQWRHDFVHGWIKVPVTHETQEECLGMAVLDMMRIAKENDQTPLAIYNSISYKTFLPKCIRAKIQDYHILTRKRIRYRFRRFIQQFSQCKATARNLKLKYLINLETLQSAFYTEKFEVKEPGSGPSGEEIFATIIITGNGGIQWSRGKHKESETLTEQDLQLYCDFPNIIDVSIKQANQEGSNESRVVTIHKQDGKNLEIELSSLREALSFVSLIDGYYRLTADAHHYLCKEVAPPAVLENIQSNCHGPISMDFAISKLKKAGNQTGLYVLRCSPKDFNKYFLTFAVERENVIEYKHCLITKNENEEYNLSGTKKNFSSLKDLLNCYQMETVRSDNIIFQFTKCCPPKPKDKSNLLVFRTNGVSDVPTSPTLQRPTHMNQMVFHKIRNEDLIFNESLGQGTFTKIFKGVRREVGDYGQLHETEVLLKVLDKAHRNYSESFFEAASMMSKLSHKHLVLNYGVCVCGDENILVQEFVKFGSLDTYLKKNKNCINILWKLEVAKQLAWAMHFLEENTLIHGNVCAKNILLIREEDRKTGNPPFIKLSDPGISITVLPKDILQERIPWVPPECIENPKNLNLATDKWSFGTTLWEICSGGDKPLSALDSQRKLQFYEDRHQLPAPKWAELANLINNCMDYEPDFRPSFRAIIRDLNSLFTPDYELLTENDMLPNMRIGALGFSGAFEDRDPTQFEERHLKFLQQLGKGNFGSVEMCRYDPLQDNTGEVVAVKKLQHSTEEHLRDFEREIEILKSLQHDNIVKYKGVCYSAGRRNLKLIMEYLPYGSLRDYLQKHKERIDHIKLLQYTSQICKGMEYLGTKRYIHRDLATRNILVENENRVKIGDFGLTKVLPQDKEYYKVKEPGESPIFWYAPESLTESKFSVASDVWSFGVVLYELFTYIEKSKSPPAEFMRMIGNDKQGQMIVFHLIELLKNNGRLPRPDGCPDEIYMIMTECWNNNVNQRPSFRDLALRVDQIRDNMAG
T1 sequence (P49841 whole entry): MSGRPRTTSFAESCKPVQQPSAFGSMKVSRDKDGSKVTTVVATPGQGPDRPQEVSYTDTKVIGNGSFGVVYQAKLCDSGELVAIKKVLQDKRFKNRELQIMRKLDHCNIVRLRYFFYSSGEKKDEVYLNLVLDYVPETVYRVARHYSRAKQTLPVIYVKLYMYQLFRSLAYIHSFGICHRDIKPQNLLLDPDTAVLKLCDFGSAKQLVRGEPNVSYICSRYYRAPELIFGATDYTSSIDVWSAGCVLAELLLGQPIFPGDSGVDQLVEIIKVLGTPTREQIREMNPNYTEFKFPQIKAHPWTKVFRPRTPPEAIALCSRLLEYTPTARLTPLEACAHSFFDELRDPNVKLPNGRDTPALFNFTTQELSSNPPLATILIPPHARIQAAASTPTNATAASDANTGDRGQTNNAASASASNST

For `C[C@@H]1O[C@@H](n2c3ccccc3c3c4c(c5c6ccccc6[nH]c5c32)C(=O)NC4=O)[C@H](O)[C@H](O)[C@H]1O` [formula (III), N^13-1′-β-L-rhamnosylarcyriaflavin], on JAK2, the inhibition at 0.01 µM is -3% and the inhibition at 0.1 µM came out at 33%. In addition, at GSK3b, the inhibition at 0.01 µM turned out to be 21% and the inhibition at 0.1 µM turned out to be 72%.
`C[C@@H]1O[C@@H](n2c3ccccc3c3c4c(c5c6ccccc6[nH]c5c32)C(=O)NC4=O)C[C@H](O)[C@H]1O` [formula (IV), N^13-1′-β-L-olivosylarcyriaflavin]: the inhibition at 0.01 µM at JAK2 is 19%; at GSK3b, 21%. Also, the inhibition at 0.1 µM on JAK2 was 74%; at GSK3b, 69%.
Take `C[C@]12O[C@H](C[C@@H](O)[C@H]1O)n1c3ccccc3c3c4c(c5c6ccccc6n2c5c31)C(=O)NC4=O` [formula (IX), N^12-5′(S)-N^13-1′-(R)-L-digitoxosylarcyriaflavin]: at JAK2, the IC50 was found to be 1.2 nM.
For the compound `C[C@@H]1O[C@@H](n2c3ccccc3c3c4c(c5c6ccccc6[nH]c5c32)C(=O)NC4=O)C[C@@H](O)[C@H]1O` [formula (V), N^13-1′-β-L-digitoxosylarcyriaflavin], the inhibition at 0.01 µM came out at 23% on JAK2 and 42% on GSK3b. Moreover, the inhibition at 0.1 µM amounted to 65% on JAK2 and 81% at GSK3b.
On to `C[C@H]1O[C@@H](n2c3ccccc3c3c4c(c5c6ccccc6[nH]c5c32)C(=O)NC4=O)C[C@@H](O)[C@@H]1O` [formula (VI), N^13-1′-β-D-olivosylarcyriaflavin], for which the inhibition at 0.01 µM was 42% at JAK2 and 18% on GSK3b. For the same compound, the inhibition at 0.1 µM on JAK2 was 88%; at GSK3b, 69%.
Take `C[C@]12O[C@H]([C@H](O)[C@H](O)[C@H]1O)n1c3ccccc3c3c4c(c5c6ccccc6n2c5c31)C(=O)NC4=O` [formula (VII), N^12-5′(S)-N^13-1′-(R)-L-rhamnosylarcyriaflavin]: the IC50 on JAK2 came out at 0.5 nM.
On the same count and under the same terms, then `C[C@]12O[C@H](C[C@H](O)[C@H]1O)n1c3ccccc3c3c4c(c5c6ccccc6n2c5c31)C(=O)NC4=O` [formula (VIII), N^12-5′(S)-N^13-1′-(R)-L-olivosylarcyriaflavin], with 0.74 nM.
Consider `C[C@@H]1O[C@@H](n2c3ccccc3c3c4c(c5c6ccccc6[nH]c5c32)CNC4=O)[C@H](O)[C@H](O)[C@H]1O` [formula (XII), N^13-1′-β-L-rhamnosyl-k252c], for which the inhibition at 0.01 µM on JAK2 was determined as 7%; at GSK3b, 3%. In addition, the values for the inhibition at 0.1 µM on JAK2 and at GSK3b were 39% and 8%, respectively.
In the case of `C[C@@H]1O[C@@H](n2c3ccccc3c3c4c(c5c6ccccc6[nH]c5c32)CNC4=O)C[C@H](O)[C@H]1O` [formula (XIII), N^13-1′-β-L-olivosyl-k252c], at JAK2, the inhibition at 0.01 µM is 14% and the inhibition at 0.1 µM worked out at 79%. Further, at GSK3b, the inhibition at 0.01 µM amounted to 2% and the inhibition at 0.1 µM came to 9%.
The corresponding values for `C[C@@H]1O[C@@H](n2c3ccccc3c3c4c(c5c6ccccc6[nH]c5c32)CNC4=O)C[C@@H](O)[C@H]1O` [formula (XIV), N^13-1′-β-L-digitoxosyl-k252c] are -4%, 25%, 1% and 7%.
The matching figures for `C[C@H]1O[C@@H](n2c3ccccc3c3c4c(c5c6ccccc6[nH]c5c32)CNC4=O)C[C@@H](O)[C@@H]1O` [formula (XV), N^13-1′-β-D-olivosyl-k252c]: 37%, 89%, 0% and 0%.
As for `C[C@]12O[C@H]([C@H](O)[C@H](O)[C@H]1O)n1c3ccccc3c3c4c(c5c6ccccc6n2c5c31)CNC4=O` [formula (XVI), N^12-5′(S)-N^13-1′-(R)-L-rhamnosyl-k252c], the IC50 on JAK2 was 0.43 nM.
Turning to `C[C@]12O[C@H](C[C@H](O)[C@H]1O)n1c3ccccc3c3c4c(c5c6ccccc6n2c5c31)CNC4=O` [formula (XVII), N^12-5′(S)-N^13-1′-(R)-L-olivosyl-k252c], the IC50 on JAK2 was determined as 0.57 nM.
On the same count and under the same terms, then `C[C@]12O[C@H](C[C@@H](O)[C@H]1O)n1c3ccccc3c3c4c(c5c6ccccc6n2c5c31)CNC4=O` [formula (XVIII), N^12-5′(S)-N^13-1′-(R)-L-digitoxosyl-k252c], with 0.53 nM.
